Reference: patent US20200179528A9, “IMMUNE CELL-TARGETED PARTICLES” (Dana-Farber Cancer Institute, Inc., priority 2015, published 2020)

What was measured:
[1] = SD-208 solubility, loading and release from PEG-PLGA nanoparticles; assay type: physicochemical
Experimental: PLGA-based nanoparticles were prepared using single-emulsion evaporation. PLGA (AP041, acid end-capped, 50:50, 10-15 kDa, Akina) was blended with Mal-PEG-PLGA (AI53, diblock copolymer, 50:50, 5-10 kDa, Akina) at 25% w/w. The polymers were dissolved in 1 mL dichloromethane (Sigma) and added to 6 mL of ice-cold 0.25% PVA (30,000-70,000 g/mol, Sigma) in 50 mM phosphate buffer, pH 5.8. The two phases were emulsified using a sonic probe (Qsonica Q700 with microtip, amplitude 10, 3 s power with 2 s break). […] The emulsion was stirred at room temperature for 3 h to evaporate the dichloromethane and afterwards purified by two wash-spin cycles in PBS at 20,000 g for 10 min. Nanoparticles s were assessed for size distribution using a Zetasizer Nano series ZS90, and drug encapsulation was determined by absorbance at 370 nm.
Encapsulation efficiency and drug release kinetics were analyzed by its absorbance maximum at 370 nm (FIG. 43A).

CD8+ T cells = assay: CD8+ T cell activation with anti-CD3/CD28 beads in presence of TGFβ1 (proliferation, granzyme B, IFNγ); assay type: cell-based, mouse
Experimental: FIG. 34. […] Intracellular granzyme B expression was assessed by flow cytometry, n=3±SD. […] Fold change of interferon-γ (IFNγ) was measured by ELISA, n=4±SEM.
In vitro binding of nanoparticles was assessed after incubation of 250,000 enriched T cells with fluorescently (DiD, Life Technologies) labelled nanoparticles at different concentrations for 30 min at 37° C. After the incubation, T cells were washed 3 to 5 times in PBS and directly assessed by flow cytometry for DiD fluorescence. T cells isolated from OT-I Rag^−/− mice were activated by Dynabeads Mouse T-Activator CD3/CD28 (Thermo Scientific) at a ratio of 2:1 T cell to bead or by ova-expressing B16 melanoma cells at a ratio of 10:1 T cell to B16 cell. Carboxyfluorescein succinimidyl ester (CFSE, BioLegend) or cell trace violet (CTV, Thermo Scientific) was used to assess T cell proliferation; the labeling was carried out according to the manufacturer's recommendations. Mouse TGFβ1 was purchased from Cell Signaling Technologies, and T cell supernatants were analyzed by mouse IFN-γ ELISA MAX™ (BioLegend).

[2] = Loading of other small molecules into the nanoparticles and their release; assay type: physicochemical; details: 10%, 20% or 40% small molecule
Experimental: The formulation procedure used is the same as that used in FIG. 1. Release was measured by absorbance maximum at 280 nm, 300 nm, and 340 nm, respectively. 22.5 mg of PLGA and 7.5 mg of PLGA-PEG were used along with 3 mg (10%), 6 mg (20%), or 12 mg (40%) of small molecule. Note that the release profile can be delayed by loading less drug. Note that the encapsulation efficiency can increase (epacadostat) or decrease (resiquimod, ruxolitinib) by increasing initial loading amount.

[3] = SD-208 released from nanoparticles versus free inhibitor in DMSO

SMILES | amount entrapped in PEG-PLGA nanoparticles [1] [μg/mg polymer] | water solubility [1] | release from the nanoparticles ([1]; PBS containing 10% serum) | TGFβ-mediated inhibition of T cell proliferation (CD8+ T cells; SD-208 released from nanoparticles versus free SD-208, TGFβ1 2 ng/mL, 72 hours) | granzyme B (CD8+ T cells; [3]) | interferon γ (IFNγ) (CD8+ T cells; [3]) | change of encapsulation efficiency by increasing initial loading amount [2]
Fc1ccc(Cl)cc1-c1nc(Nc2ccncc2)c2nccnc2n1 [SD-208] | 20 | poorly water soluble | released slowly from the nanoparticles over the course of weeks | reversed in a comparable manner | upregulated to a similar extent as free inhibitor | upregulated to a similar extent as free inhibitor | –
NS(=O)(=O)NCCNc1nonc1/C(=N/O)Nc1ccc(F)c(Br)c1 [epacadostat] | – | – | – | – | – | – | increase
N#CC[C@H](C1CCCC1)n1cc(-c2ncnc3[nH]ccc23)cn1 [ruxolitinib] | – | – | – | – | – | – | decrease
